Laboratory results reported in paper PMC6301270 (MedChemComm, 2018).

Tested on: T.b. brucei (strain 427) bloodstream form parasites
Assay: T.b. brucei single concentration screen (10 μM)
Details: Trypanosoma brucei, read-out: T.b.brucei % viability (10 µM)

Row | SMILES | viability at 10 µM [%]
1 | CCC(Sc1nc2ccccc2o1)C(=O)Nc1nnc(C)s1 (stereo not shown) [MMV611037, CCC(Sc1oc2ccccc2n1)C(=O)Nc3nnc(C)s3] | 113
2 | O=C(NCCN1CCCC1)c1cc(NCCN2CCOCC2)nc2ccc(Cl)cc12 [MMV634140, Clc1ccc2nc(cc(c2c1)C(=O)NCCN1CCCC1)NCCN1CCOCC1] | 89
3 | Cc1nc(-c2ccccn2)nc(N(C)CCc2ccccc2)c1Cl [MMV658988, CN(CCc1ccccc1)c2nc(nc(C)c2Cl)c3ccccn3] | 95
4 | Cc1nc(-c2ccccn2)nc(NCCc2ccc(S(C)(=O)=O)cc2)c1Cl [MMV658993, Cc1nc(nc(NCCc2ccc(cc2)S(=O)(=O)C)c1Cl)c3ccccn3] | 102
5 | Cc1nc(-c2ccccn2)nc(N2CCC(Cc3ccccc3)C2)c1Cl (stereo not shown) [MMV659004, Cc1nc(nc(N2CCC(Cc3ccccc3)C2)c1Cl)c4ccccn4] | 109
6 | FC(F)(F)c1cc(NCCc2ccccc2)nc(-c2ccccn2)n1 [MMV659010, FC(F)(F)c1cc(NCCc2ccccc2)nc(n1)c3ccccn3] | 82
7 | Brc1cncc(-c2cc(NCCCn3ccnc3)nc(-c3ccccc3)n2)c1 [MMV661713, Brc1cncc(c1)c2cc(NCCCn3ccnc3)nc(n2)c4ccccc4] | 98
8 | Clc1cccc(C(c2ccc(CN3CCNCC3)cc2)n2ccnc2)c1 (stereo not shown) [MMV663250, Clc1cccc(c1)C(c2ccc(CN3CCNCC3)cc2)n4ccnc4] | 75
9 | O=C(NCCN1CCCC1)c1cc(NCCCCN2CCC(F)(F)CC2)nc2ccc(Cl)cc12 [MMV667494, FC1(F)CCN(CCCCNc2cc(c3cc(ccc3n2)Cl)C(=O)NCCN2CCCC2)CC1] | 56
10 | Nc1ncc(-c2ccc(C(F)(F)F)nc2)cc1-c1ccc(C(F)(F)F)nc1 [MMV668727, Nc1ncc(cc1c2ccc(nc2)C(F)(F)F)c3ccc(nc3)C(F)(F)F] | 75
11 | Cc1[nH]c2cc(F)cc(F)c2c(=O)c1-c1ccc(Oc2ccc(OC(F)(F)F)cc2)cc1 [MMV671636, CC1=C(C(=O)c2c(F)cc(F)cc2N1)c3ccc(Oc4ccc(OC(F)(F)F)cc4)cc3] | 101
12 | CC(C)(C)c1ccc(N[C@@H]2CCCC[C@H]2NC(=O)c2ccco2)cc1 [MMV675969, CC(C)(C)c1ccc(N[C@@H]2CCCC[C@H]2NC(=O)c3occc3)cc1] | 114
13 | COc1ccc(-c2nn(C(C)C)c3ncnc(N)c23)cc1OC [MMV675993, COc1ccc(cc1OC)c2nn(C(C)C)c3ncnc(N)c23] | 38
14 | Clc1ccc(-n2cc(COc3ccnc4ccccc34)nn2)cc1 [MMV675994, Clc1ccc(cc1)n2cc(COc3ccnc4ccccc34)nn2] | 91
15 | COc1ccc(N(CCc2cccc(C)n2)C(C)=O)cc1 [MMV675995, COc1ccc(cc1)N(CCc2cccc(C)n2)C(=O)C] | 108
16 | COc1ccc(N(CCc2cccc(C)n2)C(=O)C2CCCCC2)cc1 [MMV675996, COc1ccc(cc1)N(CCc2cccc(C)n2)C(=O)C3CCCCC3] | 107
17 | N#CCN(CCCCN1CCN(c2ccc(F)cc2)CC1)C(=O)OCc1ccccc1 [MMV675997, Fc1ccc(cc1)N2CCN(CCCCN(CC#N)C(=O)OCc3ccccc3)CC2] | 97
18 | O=C(Nc1c(O)cccc1-c1nc2c(C(=O)O)cccc2o1)c1cc(-c2ccccc2)on1 [MMV676008, OC(=O)c1cccc2oc(nc12)c3cccc(O)c3NC(=O)c4cc(on4)c5ccccc5] | 110
19 | Clc1ccc(Cl)c(CO[C@H]2CCCC[C@@H]2n2ccnc2)c1 [MMV676048, Clc1ccc(Cl)c(CO[C@H]2CCCC[C@@H]2n3ccnc3)c1] | 104
20 | CS(=O)(=O)N1CCC(Cn2nc(Cc3cccc4ccccc34)c3c(N)ncnc32)CC1 [MMV676050, CS(=O)(=O)N1CCC(Cn2nc(Cc3cccc4ccccc34)c5c(N)ncnc25)CC1] | 117
21 | COc1cc(NC(=O)Cc2nn(C)c(=O)c3ccccc23)ccc1Cl [MMV676053, COc1cc(NC(=O)CC2=NN(C)C(=O)c3ccccc23)ccc1Cl] | 100
22 | CC(C)(C)OC(=O)N1CCN(c2cc(-c3ccc(Oc4ccccc4)cc3)n[nH]2)CC1 [MMV676057, CC(C)(C)OC(=O)N1CCN(CC1)c2cc(n[nH]2)c3ccc(Oc4ccccc4)cc3] | 21
